Assay results published in patent publication US8741836B2, “Polypeptides” (Novo Nordisk A/S, priority 2011, dated 2014).
Starred links: 1 amine or outer side, 2 acyl side, 3 side chain; linkers in the order of their positions; H or OH if unused. Positions of bridges follow the written chain, without caps; N, C: chain ends. Residues, ends and D or L forms follow the SMILES beside them. *: point of attachment. C20 diacid = O=C(O)CCCCCCCCCCCCCCCCCCC(=O)*; γGlu = O=C(O)[C@H](CCC(=O)[*:2])N[*:1]

Tested on: ad libitum fed rat
Assay: Assay (I) efficacy testing on appetite (food intake) using an ad libitum fed rat model
Type: in vivo, Sprague Dawley (SD) rats
Details: 3 nmol/kg
How it was run: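 Ad libitum fed Sprague Dawley rats, 200-250 g, singly housed on reversed light cycle, got one ip, po or sc dose of 0.01-3 mg/kg just before lights off; groups of 5-8 with vehicle control. Food intake recorded hourly for 7 h, then at 24 h and sometimes 48 h; Grubbs outliers excluded.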

| Structure (SMILES) | Food intake reduction 0-24 h 3 nmol/kg (%) | Food intake reduction 24-48 h 3 nmol/kg (%) |
| --- | --- | --- |
| CC[C@H](C)[C@H](NC(=O)[C@@H]1CCCN1C(=O)CNC(=O)[C@H](Cc1ccccc1)NC(=O)[C@H](CC(N)=O)NC(=O)[C@H](CC(N)=O)NC(=O)[C@H](CO)NC(=O)[C@H](CO)NC(=O)[C@H](Cc1c[nH]cn1)NC(=O)[C@H](Cc1c[nH]cn1)NC(=O)[C@H](CC(C)C)NC(=O)[C@H](Cc1ccccc1)NC(=O)[C@H](CCC(=O)O)NC(=O)[C@H](C)NC(=O)[C@H](CC(C)C)NC(=O)[C@H](CCCNC(=N)N)NC(=O)[C@H](CCC(N)=O)NC(=O)[C@@H](NC(=O)[C@H](C)NC(=O)[C@@H]1CSSC[C@H](NC(=O)[C@H](Cc2c[nH]cn2)NC(=O)[C@H](Cc2c[nH]cn2)NC(=O)[C@H](Cc2c[nH]cn2)NC(=O)CC[C@H](NC(=O)CCCCCCCCCCCCCCCCCCC(=O)O)C(=O)O)C(=O)N[C@@H](CCCNC(=N)N)C(=O)N[C@@H]([C@@H](C)O)C(=O)N[C@@H](C)C(=O)N[C@@H]([C@@H](C)O)C(=O)N1)[C@@H](C)O)C(=O)N[C@@H](CC(C)C)C(=O)N1CCC[C@H]1C(=O)N1CCC[C@H]1C(=O)N[C@H](C(=O)N[C@@H](CC(N)=O)C(=O)N[C@H](C(=O)NCC(=O)N[C@@H](CO)C(=O)N[C@@H](CC(N)=O)C(=O)N[C@H](C(=O)N[C@@H](Cc1ccc(O)cc1)C(N)=O)[C@@H](C)O)C(C)C)[C@@H](C)O [Example 22, N-alpha-[(S)-4-Carboxy-4-(19-carboxynonadecanoylamino)butyryl]-His-His-[His1,Arg3,Glu14,His17]-pramlintide] ({C20 diacid-γGlu}-HHHCRTATCATQRLAEFLHHSSNNFGPILPPTNVGSNTY-NH2; disulfide 4-9 (inferred)) | 26 | 5 |
| CC[C@H](C)[C@H](NC(=O)[C@@H]1CCCN1C(=O)CNC(=O)[C@H](Cc1ccccc1)NC(=O)[C@H](CC(N)=O)NC(=O)[C@H](CC(N)=O)NC(=O)[C@H](CO)NC(=O)[C@H](CO)NC(=O)[C@H](CCCNC(=N)N)NC(=O)[C@H](Cc1c[nH]cn1)NC(=O)[C@H](CC(C)C)NC(=O)[C@H](Cc1ccccc1)NC(=O)[C@H](CCC(=O)O)NC(=O)[C@H](C)NC(=O)[C@H](CC(C)C)NC(=O)[C@H](CCCNC(=N)N)NC(=O)[C@H](CCC(N)=O)NC(=O)[C@@H](NC(=O)[C@H](C)NC(=O)[C@@H]1CSSC[C@H](NC(=O)CC[C@H](NC(=O)CCCCCCCCCCCCCCCCCCC(=O)O)C(=O)O)C(=O)NCC(=O)N[C@@H]([C@@H](C)O)C(=O)N[C@@H](C)C(=O)N[C@@H]([C@@H](C)O)C(=O)N1)[C@@H](C)O)C(=O)N[C@@H](CC(C)C)C(=O)N1CCC[C@H]1C(=O)N1CCC[C@H]1C(=O)N[C@H](C(=O)N[C@@H](CCC(=O)O)C(=O)N[C@H](C(=O)NCC(=O)N[C@@H](CO)C(=O)NCC(=O)N[C@H](C(=O)N[C@@H](Cc1ccc(O)cc1)C(N)=O)[C@@H](C)O)C(C)C)[C@@H](C)O [Example 3, N-alpha-[(S)-4-Carboxy-4-(19-carboxynonadecanoylamino)butyryl]-[des1,Gly3,Glu14,His17,Arg18,Glu31,Gly35]-pramlintide] ({C20 diacid-γGlu}-CGTATCATQRLAEFLHRSSNNFGPILPPTEVGSGTY-NH2; disulfide 1-6) | 37 | 32 |
| CC[C@H](C)[C@H](NC(=O)[C@@H]1CCCN1C(=O)CNC(=O)[C@H](Cc1ccccc1)NC(=O)[C@H](CC(N)=O)NC(=O)[C@H](CC(N)=O)NC(=O)[C@H](CO)NC(=O)[C@H](CO)NC(=O)[C@H](Cc1c[nH]cn1)NC(=O)[C@H](Cc1c[nH]cn1)NC(=O)[C@H](CC(C)C)NC(=O)[C@H](Cc1ccccc1)NC(=O)[C@H](CCC(=O)O)NC(=O)[C@H](C)NC(=O)[C@H](CC(C)C)NC(=O)[C@H](CCCNC(=N)N)NC(=O)[C@H](CCC(N)=O)NC(=O)[C@@H](NC(=O)[C@H](C)NC(=O)[C@@H]1CSSC[C@H](NC(=O)CC[C@H](NC(=O)CCCCCCCCCCCCCCCCCCC(=O)O)C(=O)O)C(=O)N[C@@H](CC(N)=O)C(=O)N[C@@H]([C@@H](C)O)C(=O)N[C@@H](C)C(=O)N[C@@H]([C@@H](C)O)C(=O)N1)[C@@H](C)O)C(=O)N[C@@H](CC(C)C)C(=O)N1CCC[C@H]1C(=O)N1CCC[C@H]1C(=O)N[C@H](C(=O)N[C@@H](CC(N)=O)C(=O)N[C@H](C(=O)NCC(=O)N[C@@H](CO)C(=O)N[C@@H](CC(N)=O)C(=O)N[C@H](C(=O)N[C@@H](Cc1ccc(O)cc1)C(N)=O)[C@@H](C)O)C(C)C)[C@@H](C)O [Example 28, N-alpha-[(S)-4-Carboxy-4-(19-carboxynonadecanoylamino)butyryl]-[des1,Glu14,His17]-pramlintide] ({C20 diacid-γGlu}-CNTATCATQRLAEFLHHSSNNFGPILPPTNVGSNTY-NH2; disulfide 1-6) | 39 | 36 |
| CC[C@H](C)[C@H](NC(=O)[C@@H]1CCCN1C(=O)CNC(=O)[C@H](Cc1ccccc1)NC(=O)[C@H](CC(N)=O)NC(=O)[C@H](CC(N)=O)NC(=O)[C@H](CO)NC(=O)[C@H](CO)NC(=O)[C@H](CCCNC(=N)N)NC(=O)[C@@H](NC(=O)[C@H](CC(C)C)NC(=O)[C@H](Cc1ccccc1)NC(=O)[C@H](CCC(=O)O)NC(=O)[C@H](C)NC(=O)[C@H](CC(C)C)NC(=O)[C@H](CCCNC(=N)N)NC(=O)[C@H](CCC(N)=O)NC(=O)[C@@H](NC(=O)[C@H](C)NC(=O)[C@@H]1CSSC[C@H](NC(=O)[C@H](Cc2c[nH]cn2)NC(=O)CC[C@H](NC(=O)CCCCCCCCCCCCCCCCCCC(=O)O)C(=O)O)C(=O)N[C@@H](CC(N)=O)C(=O)N[C@@H]([C@@H](C)O)C(=O)N[C@@H](C)C(=O)N[C@@H]([C@@H](C)O)C(=O)N1)[C@@H](C)O)C(C)C)C(=O)N[C@@H](CC(C)C)C(=O)N1CCC[C@H]1C(=O)N1CCC[C@H]1C(=O)N[C@H](C(=O)N[C@@H](CC(N)=O)C(=O)N[C@H](C(=O)NCC(=O)N[C@@H](CO)C(=O)N[C@@H](CC(N)=O)C(=O)N[C@H](C(=O)N[C@@H](Cc1ccc(O)cc1)C(N)=O)[C@@H](C)O)C(C)C)[C@@H](C)O [Example 15] ({C20 diacid-γGlu}-HCNTATCATQRLAEFLVRSSNNFGPILPPTNVGSNTY-NH2; disulfide 2-7 (inferred)) | 56 | 59 |
| CC[C@H](C)[C@H](NC(=O)[C@@H]1CCCN1C(=O)CNC(=O)[C@H](Cc1ccccc1)NC(=O)[C@H](CC(N)=O)NC(=O)[C@H](CC(N)=O)NC(=O)[C@H](CO)NC(=O)[C@H](CO)NC(=O)[C@H](CCCNC(=N)N)NC(=O)[C@H](Cc1c[nH]cn1)NC(=O)[C@H](CC(C)C)NC(=O)[C@H](Cc1ccccc1)NC(=O)[C@H](CCC(=O)O)NC(=O)[C@H](C)NC(=O)[C@H](CC(C)C)NC(=O)[C@H](CCCNC(=N)N)NC(=O)[C@H](CCC(N)=O)NC(=O)[C@@H](NC(=O)[C@H](C)NC(=O)[C@@H]1CSSC[C@H](NC(=O)[C@H](CCC(=O)O)NC(=O)CC[C@H](NC(=O)CCCCCCCCCCCCCCCCCCC(=O)O)C(=O)O)C(=O)N[C@@H](CC(N)=O)C(=O)N[C@@H]([C@@H](C)O)C(=O)N[C@@H](C)C(=O)N[C@@H]([C@@H](C)O)C(=O)N1)[C@@H](C)O)C(=O)N[C@@H](CC(C)C)C(=O)N1CCC[C@H]1C(=O)N1CCC[C@H]1C(=O)N[C@H](C(=O)N[C@@H](CC(N)=O)C(=O)N[C@H](C(=O)NCC(=O)N[C@@H](CO)C(=O)N[C@@H](CC(N)=O)C(=O)N[C@H](C(=O)N1CCC[C@H]1C(N)=O)[C@@H](C)O)C(C)C)[C@@H](C)O [Example 10, N-alpha-[(S)-4-Carboxy-4-(19-carboxynonadecanoylamino)butyryl]-[Glu1,Glu14,His17,Arg18,Pro37]-pramlintide] ({C20 diacid-γGlu}-ECNTATCATQRLAEFLHRSSNNFGPILPPTNVGSNTP-NH2; disulfide 2-7 (inferred)) | 50 | 40 |
| CC[C@H](C)[C@H](NC(=O)[C@H](CCC(=O)O)NC(=O)CNC(=O)[C@H](Cc1ccccc1)NC(=O)[C@H](CC(N)=O)NC(=O)[C@H](CC(N)=O)NC(=O)[C@H](CO)NC(=O)[C@H](CO)NC(=O)[C@H](CCCNC(=N)N)NC(=O)[C@H](Cc1c[nH]cn1)NC(=O)[C@H](CC(C)C)NC(=O)[C@H](Cc1ccccc1)NC(=O)[C@H](CCC(=O)O)NC(=O)[C@H](C)NC(=O)[C@H](CC(C)C)NC(=O)[C@H](CCCNC(=N)N)NC(=O)[C@H](CCC(N)=O)NC(=O)[C@@H](NC(=O)[C@H](C)NC(=O)[C@@H]1CSSC[C@H](NC(=O)[C@H](Cc2c[nH]cn2)NC(=O)CC[C@H](NC(=O)CCCCCCCCCCCCCCCCCCC(=O)O)C(=O)O)C(=O)N[C@@H](CC(N)=O)C(=O)N[C@@H]([C@@H](C)O)C(=O)N[C@@H](C)C(=O)N[C@@H]([C@@H](C)O)C(=O)N1)[C@@H](C)O)C(=O)N[C@@H](CC(C)C)C(=O)N[C@@H](CO)C(=O)N[C@@H](CCCNC(=N)N)C(=O)N[C@H](C(=O)N[C@@H](CC(N)=O)C(=O)N[C@H](C(=O)NCC(=O)N[C@@H](CO)C(=O)N[C@@H](CC(N)=O)C(=O)N[C@H](C(=O)N[C@@H](Cc1ccc(O)cc1)C(N)=O)[C@@H](C)O)C(C)C)[C@@H](C)O [Example 7, N-alpha-[(S)-4-Carboxy-4-(19-carboxynonadecanoylamino)butyryl]-[His1,Glu14,His17,Arg18,Glu25,Ser28,Arg29]-pramlintide] ({C20 diacid-γGlu}-HCNTATCATQRLAEFLHRSSNNFGEILSRTNVGSNTY-NH2; disulfide 2-7 (inferred)) | 53 | 46 |
